The subject of the test is CHO, HEK-293, HeLa and D283-Med cells. The experiment in a line: Immunoblotting of global O-GlcNAcylation in various mammalian cell types. The settings on record: 50 μM, 24 hours. It is filed as cell-based. The protocol:
In vivo inhibition of glycosylation: For all immunoblotting experiments, CHO-K1 (CHO) cells were grown in F12-K media supplemented with 10% FBS and antibiotics at 37° C. in a 5% CO2 incubator. Cells were treated by adding indicated inhibitor in DMSO vehicle (0.5% final vehicle concentration) upon reaching 70% confluence. After indicated treatment length, cells were harvested by aspirating growth media and washing with ice cold 1× PBS. Cells were subsequently lysed in boiling 1% SDS/20 mM HEPES 7.9. After cooling to room temperature, 1 mM PMSF, 10 μM PUGNAC, 10 μM TMG and 1× Complete protease inhibitor cocktail were added to the solution. The mixture was sonicated and then subjected to a 5 minute incubation at 95° C. The samples were centrifuged for 15 minutes at 20,000×g and the supernatant was collected and the total protein was measured by BCA assay (BIO-RAD).
The sample was separated by SDS-PAGE (Bio-Rad 4-15%, Cat: 345-0028), transferred to a nitrocellulose membrane (iBlot, Invitrogen) and probed with the indicated antibody. Tyipcally, membranes were blocked with 4% BSA in 1× TBS+0.04% tween-20 for 1 hour before incubating with antibody (typically diluted 1:1000 in 4% BSA inlx TBS+0.04% tween-20) overnight at 4° C. […]
A general note: A western blot detects proteins with antibodies after separation by electrophoresis.

Take `COc1ccccc1[C@@H](NS(=O)(=O)c1ccc2[nH]c(=O)ccc2c1)C(=O)N(Cc1ccco1)Cc1cccs1` [OSMI-1, (R)—N-(furan-2-ylmethyl)-2-(2-methoxyphenyl)-2-(2-oxo-1,2-dihydroquinoline-6-sulfonamido)-N-(thiophen-2-ylmethyl)acetamide]: the “Global O-GlcNAc levels in four cell lines” value was “reduce global O-GlcNAc levels in all four lines examined”.
